Experiments:
Assay type in all cases: cell-based
[1] = test system: SK-MEL-2; experiment: NCI 60 cell assay, melanoma SK-MEL-2; details: Homo sapiens, 48 h; SK-MEL-2 (melanoma); drug exposure two days, SRB endpoint; read-out: GI-50 value
Protocol: (§1) Samples were tested in the standard National Cancer Institute 60-cell line protocol. First, they were tested against all 60 cell lines in a single final concentration of 10 micromolar. Then, they were separately tested in five 10-fold dilutions. The drug exposure was two days, with an SRB endpoint.

[2] = test system: T-47D; experiment: NCI 60 cell assay, breast T-47D; details: Homo sapiens, T47D, 48 h; T-47D (breast); drug exposure two days, SRB endpoint; read-out: GI-50 value
Protocol: as §1

[3] = test system: CAKI-1; experiment: NCI 60 cell assay, renal CAKI-1; details: Homo sapiens, 48 h; CAKI-1 (renal); drug exposure two days, SRB endpoint; read-out: GI-50 value
Protocol: as §1

[4] = test system: HS 578T; experiment: NCI 60 cell assay, breast HS 578T; details: Homo sapiens, 48 h; HS 578T (breast); drug exposure two days, SRB endpoint; read-out: GI-50 value
Protocol: as §1

[5] = test system: PC-3; experiment: NCI 60 cell assay, prostate PC-3; details: Homo sapiens, 48 h; PC-3 (prostate); drug exposure two days, SRB endpoint; read-out: GI-50 value
Protocol: as §1

[6] = test system: A498; experiment: NCI 60 cell assay, renal A498; details: Homo sapiens, 48 h, drug exposure two days, SRB endpoint, read-out: GI-50 value
Protocol: as §1

[7] = test system: UACC-62; experiment: NCI 60 cell assay, melanoma UACC-62; details: Homo sapiens, 48 h; UACC-62 (melanoma); drug exposure two days, SRB endpoint; read-out: GI-50 value
Protocol: as §1

[8] = test system: SNB-19; experiment: NCI 60 cell assay, CNS SNB-19; details: Homo sapiens, 48 h; SNB-19 (CNS); drug exposure two days, SRB endpoint; read-out: GI-50 value
Protocol: as §1

[9] = test system: UACC-257; experiment: NCI 60 cell assay, melanoma UACC-257; details: Homo sapiens, 48 h; UACC-257 (melanoma); drug exposure two days, SRB endpoint; read-out: GI-50 value
Protocol: as §1

[10] = test system: M14; experiment: NCI 60 cell assay, melanoma M14; details: Homo sapiens, 48 h, drug exposure two days, SRB endpoint, read-out: GI-50 value
Protocol: as §1

[11] = test system: SNB-75; experiment: NCI 60 cell assay, CNS SNB-75; details: Homo sapiens, 48 h; SNB-75 (CNS); drug exposure two days, SRB endpoint; read-out: GI-50 value
Protocol: as §1

[12] = test system: RPMI-8226; experiment: NCI 60 cell assay, leukemia RPMI-8226; details: Homo sapiens, 48 h; RPMI-8226 (leukemia); drug exposure two days, SRB endpoint; read-out: GI-50 value
Protocol: as §1

[13] = test system: 786-0; experiment: NCI 60 cell assay, renal 786-0; details: Homo sapiens, 48 h; 786-0 (renal); drug exposure two days, SRB endpoint; read-out: GI-50 value
Protocol: as §1

[14] = test system: CCRF-CEM; experiment: NCI 60 cell assay, leukemia CCRF-CEM; details: Homo sapiens, 48 h, drug exposure two days, SRB endpoint, read-out: GI-50 value
Protocol: as §1

[15] = test system: NCI-H522; experiment: NCI 60 cell assay, NSCLC NCI-H522; details: Homo sapiens, 48 h, drug exposure two days, SRB endpoint, read-out: GI-50 value
Protocol: as §1

[16] = test system: OVCAR-5; experiment: NCI 60 cell assay, ovarian OVCAR-5; details: Homo sapiens, 48 h; OVCAR-5 (ovarian); drug exposure two days, SRB endpoint; read-out: GI-50 value
Protocol: as §1

[17] = test system: MOLT-4; experiment: NCI 60 cell assay, leukemia MOLT-4; details: Homo sapiens, 48 h; MOLT-4 (leukemia); drug exposure two days, SRB endpoint; read-out: GI-50 value
Protocol: as §1

[18] = test system: NCI-H460; experiment: NCI 60 cell assay, NSCLC NCI-H460; details: Homo sapiens, 48 h, drug exposure two days, SRB endpoint, read-out: GI-50 value
Protocol: as §1

[19] = test system: SF-539; experiment: NCI 60 cell assay, CNS SF-539; details: Homo sapiens, 48 h; SF-539 (CNS); drug exposure two days, SRB endpoint; read-out: GI-50 value
Protocol: as §1

[20] = test system: RXF 393; experiment: NCI 60 cell assay, renal RXF 393; details: Homo sapiens, 48 h; RXF 393 (renal); drug exposure two days, SRB endpoint; read-out: GI-50 value
Protocol: as §1

[21] = test system: SF-295; experiment: NCI 60 cell assay, CNS SF-295; details: Homo sapiens, 48 h; SF-295 (CNS); drug exposure two days, SRB endpoint; read-out: GI-50 value
Protocol: as §1

[22] = test system: SW-620; experiment: NCI 60 cell assay, colon SW-620; details: Homo sapiens, 48 h; SW-620 (colon); drug exposure two days, SRB endpoint; read-out: GI-50 value
Protocol: as §1

[23] = test system: NCI-H23; experiment: NCI 60 cell assay, NSCLC NCI-H23; details: Homo sapiens, 48 h, drug exposure two days, SRB endpoint, read-out: GI-50 value
Protocol: as §1

[24] = test system: TK-10; experiment: NCI 60 cell assay, renal TK-10; details: Homo sapiens, 48 h; TK-10 (renal); drug exposure two days, SRB endpoint; read-out: GI-50 value
Protocol: as §1

[25] = test system: DU-145; experiment: NCI 60 cell assay, prostate DU-145; details: Homo sapiens, 48 h; DU-145 (prostate); drug exposure two days, SRB endpoint; read-out: GI-50 value
Protocol: as §1

[26] = test system: MALME-3M; experiment: NCI 60 cell assay, melanoma MALME-3M; details: Homo sapiens, 48 h; MALME-3M (melanoma); drug exposure two days, SRB endpoint; read-out: GI-50 value
Protocol: as §1

[27] = test system: OVCAR-8; experiment: NCI 60 cell assay, ovarian OVCAR-8; details: Homo sapiens, 48 h; OVCAR-8 (ovarian); drug exposure two days, SRB endpoint; read-out: GI-50 value
Protocol: as §1

[28] = test system: K-562; experiment: NCI 60 cell assay, leukemia K-562; details: Homo sapiens, K562, 48 h; K-562 (leukemia); drug exposure two days, SRB endpoint; read-out: GI-50 value
Protocol: as §1

[29] = test system: KM12; experiment: NCI 60 cell assay, colon KM12; details: Homo sapiens, 48 h, drug exposure two days, SRB endpoint, read-out: GI-50 value
Protocol: as §1

[30] = test system: HCC-2998; experiment: NCI 60 cell assay, colon HCC-2998; details: Homo sapiens, 48 h; HCC-2998 (colon); drug exposure two days, SRB endpoint; read-out: GI-50 value
Protocol: as §1

[31] = test system: EKVX; experiment: NCI 60 cell assay, NSCLC EKVX; details: Homo sapiens, 48 h, drug exposure two days, SRB endpoint, read-out: GI-50 value
Protocol: as §1

[32] = test system: SK-MEL-28; experiment: NCI 60 cell assay, melanoma SK-MEL-28; details: Homo sapiens, 48 h; SK-MEL-28 (melanoma); drug exposure two days, SRB endpoint; read-out: GI-50 value
Protocol: as §1

Compound	GI50 [1] [µM]	GI50 [2] [µM]	GI50 [3] [µM]	GI50 [4] [µM]	GI50 [5] [µM]	GI50 [6] [µM]	GI50 [7] [µM]	GI50 [8] [µM]	GI50 [9] [µM]	GI50 [10] [µM]	GI50 [11] [µM]	GI50 [12] [µM]	GI50 [13] [µM]	GI50 [14] [µM]	GI50 [15] [µM]	GI50 [16] [µM]	GI50 [17] [µM]	GI50 [18] [µM]	GI50 [19] [µM]	GI50 [20] [µM]	also measured
CC1=C2[C@@H](CC1)[C@]1(C)O[C@@](C(C)C)(C[C@H]1OC(=O)[C@H](C)O)[C@H]2OC(=O)C=Cc1ccccc1 [(Il), (3aR,4S,5R,7R,8S)-5-(((S)-2-hydroxypropanoyl)oxy)-7-isopropyl-1,4-dimethyl-2,3,3a,4,5,6,7,8-octahydro-4,7-epoxyazulen-8-yl cinnamate]	15	7.2	7.2	0.098	4	0.21	13	18	15	13	24	8	13	16	13	18	10	15	15	0.045	GI50 [21]: 11 µM; GI50 [22]: 15 µM; GI50 [23]: 14 µM; GI50 [24]: 17 µM; GI50 [25]: 17 µM; GI50 [26]: 15 µM; GI50 [27]: 0.35 µM; GI50 [28]: 15 µM; GI50 [29]: 16 µM; GI50 [30]: 14 µM; GI50 [31]: 10 µM; GI50 [32]: 16 µM
CC(=O)O[C@@H]1C[C@]2(C(C)C)O[C@@]1(C)[C@@H]1CCC(C)=C1[C@@H]2OC(=O)C=Cc1ccccc1 [(Im), (3aR,4S,5R,7R,8S)-5-acetoxy-7-isopropyl-1,4-dimethyl-2,3,3a,4,5,6,7,8-octahydro-4,7-epoxyazulen-8-yl cinnamate]	100	20	13	4.8	8	2.2	26	85	28	40	28	10	85	32	21	100	27	31	100	8.9	GI50 [21]: 39 µM; GI50 [22]: 39 µM; GI50 [23]: 35 µM; GI50 [24]: 93 µM; GI50 [25]: 71 µM; GI50 [26]: 39 µM; GI50 [27]: 9 µM; GI50 [28]: 34 µM; GI50 [29]: 40 µM; GI50 [30]: 68 µM; GI50 [31]: 20 µM; GI50 [32]: 69 µM
CC1=C2[C@@H](CC1)[C@]1(C)O[C@@](C3CCCCC3)(C[C@H]1OC(=O)CO)[C@H]2OC(=O)C=Cc1ccccc1 [(Iq), (3aR,4S,5R,7R,8S)-7-cyclohexyl-5-(2-hydroxyacetoxy)-1,4-dimethyl-2,3,3a,4,5,6,7,8-octahydro-4,7-epoxyazulen-8-yl cinnamate]	17	9.1	10	0.03	12	0.021	15	17	14	15	14	10	13	15	15	19	12	13	17	0.025	GI50 [21]: 12 µM; GI50 [22]: 14 µM; GI50 [23]: 14 µM; GI50 [24]: 17 µM; GI50 [25]: 13 µM; GI50 [26]: 17 µM; GI50 [27]: 0.1 µM; GI50 [28]: 13 µM; GI50 [29]: 14 µM; GI50 [30]: 13 µM; GI50 [31]: 11 µM; GI50 [32]: 17 µM
CC1=C2[C@@H](CC1)[C@]1(C)O[C@@](C(C)C)(C[C@H]1OC(=O)CO)[C@H]2OC(=O)/C=C/c1ccccc1 [Compound (Ih)]	44	27	1.07	0.015	26	0.034	100	39	40	43	2.9	27	35	42	40	41	40	37	40	0.13	GI50 [21]: 40 µM; GI50 [22]: 40 µM; GI50 [23]: 42 µM; GI50 [24]: 100 µM; GI50 [25]: 41 µM; GI50 [26]: 43 µM; GI50 [27]: 0.09 µM; GI50 [28]: 38 µM; GI50 [29]: 40 µM; GI50 [30]: 100 µM; GI50 [32]: 42 µM
